Patent US7824672B2, “Method for coating living cells” (Emory University, priority 2004, dated 2010)
Residues, ends and D or L forms follow the SMILES beside them. *: point of attachment. Cbz = O=C(OCc1ccccc1)*; CH2F = FC*

Key:
rat islets = experiment: Viability of encapsulated rat islets after overnight culture; format: cell-based; conditions: nicotinamide 10 mM, Z-VAD.fmk 40 μM
Description: Transplantation of islets microencapsulated within a membrane-mimetic barrier. Evaluation of cell viability. Initial experiments used CHO cells as a readily available model system to assess cell viability after encapsulation. Cells were suspended into alginate solution at 6×10^6 cells/mL and then coated with a photopolymerized membrane-mimetic lipid film. Cell viability of >95% at 24 and 48 hours was confirmed using a Live/Dead cell assay (Molecular Probes, Inc.). In the next phase of this effort, we determined the viability of encapsulated rat islets (103). Rat islets were isolated from outbred male Wistar rats and suspended at a concentration of 1000 islets in 0.25 mL of 2% alginate (UP LVM, Pronova Biomedical, Norway). Alginate encapsulated islets were coated with a membrane-mimetic film and after overnight culture viability was graded with respect to the proportion of viable cells within a given islet.

[1] = systemic; cited from earlier work
[2] = tested on: islet-induced coagulation; conditions: ex vivo model; cited from earlier work
Factor V = conditions: cited from earlier work
[3] = biotin binding sites; cited from earlier work
[4] = CD39 ATPase activity kinetics (inorganic phosphate release); format: biochemical; conditions: substrate ATP 50-1500 μM; vesicles: molar ratio CD39:POPC 1:33,613
Text: (§1) We have expressed and purified human CD39 from Pichia pastoris and confirmed both ecto-ATPase and ecto-ADPase activity. […] Briefly, the plasmid carrying the CD39 human coding sequence was provided by Dr. Simon C. Robson (Harvard Medical School, USA). Polymerase chain reaction (PCR) was utilized to add a Kozak sequence flanked by EcoRI to the […] of CD39 and a FLAG tag flanked by XbaI to the 3′ end of CD39. The construct was harbored in pCR 2.1-TOPO (Invitrogen, San Diego, Calif.) and multiplied in One Shot Top10 (Invitrogen). To express CD39 in yeast, the EcoRI/XbaI digestion product was cloned into pPICZ (Invitrogen) and transformed into Pichia pastoris strain SMD1168 (Invitrogen). The expression construct was confirmed through DNA sequencing analysis. P. pastoris cultures were grown at 30° C. and expression induced for 4 days with 0.5% methanol. Cells were harvested, resuspended in breaking buffer, and cell lysates centrifuged to separate membrane and soluble fractions. […] CD39 was extracted from membrane fractions using 1% Igepal CA-630 and purified on anti-FLAG M2 affinity columns (Sigma, Saint Louis, Mo.). Kinetic parameters were measured for both detergent-solubilized CD39 and for protein reconstituted in POPC lipid vesicles at varying molar ratios of CD39 to lipid (1:85,714, 1:33,613, 1:16,806). […] Inorganic phosphate was measured as described by Ames (116). […]

[5] = CD39 ADPase activity kinetics (inorganic phosphate release); format: biochemical; conditions: substrate ADP 50-1500 μM; vesicles: molar ratio CD39:POPC 1:33,613
Text: as §1

COC(=O)C[C@H](NC(=O)[C@H](C)NC(=O)[C@@H](NC(=O)OCc1ccccc1)C(C)C)C(=O)CF [Z-VAD.fmk] (Cbz-Val-Ala-Asp(OMe)-CH2F)
effect of anti-apoptotic agent on islet viability (rat islets): important adjuncts for maximizing islet viability

heparin
half-life [1]: one hour | concentration that prevented islet-induced coagulation [2]: 4 U/mL blood | enhancement of APC's ability to inactivate Factor V (Factor V): four-fold

avidin: biotin binding protein with four biotin binding sites
binding affinity (log) [3]: > 15

NC(=O)c1cccnc1 [nicotinamide]
effect of anti-apoptotic agent on islet viability (rat islets): important adjuncts for maximizing islet viability

B1: Free CD39: detergent-solubilized human CD39 expressed in Pichia pastoris, FLAG tagged (protein, UniProt P49961 1-510, looked up)
Ectonucleoside triphosphate …: MEDTKESNVKTFCSKNILAILGFSSIIAVIALLAVGLTQNKALPENVKYGIVLDAGSSHTSLYIYKWPAEKENDTGVVHQVEECRVKGPGISKFVQKVNEIGIYLTDCMERAREVIPRSQHQETPVYLGATAGMRLLRMESEELADRVLDVVERSLSNYPFDFQGARIITGQEEGAYGWITINYLLGKFSQKTRWFSIVPYETNNQETFGALDLGGASTQVTFVPQNQTIESPDNALQFRLYGKDYNVYTHSFLCYGKDQALWQKLAKDIQVASNEILRDPCFHPGYKKVVNVSDLYKTPCTKRFEMTLPFQQFEIQGIGNYQQCHQSILELFNTSYCPYSQCAFNGIFLPPLQGDFGAFSAFYFVMKFLNLTSEKVSQEKVTEMMKKFCAQPWEEIKTSYAGVKEKYLSEYCFSGTYILSLLLQGYHFTADSWEHIHFIGKIQGSDAGWTLGYMLNLTNMIPAEQPLSTPLSHSTYVFLMVLFSLVLFTVAIIGLLIFHKPSYFWKDMV
modifications: FLAG tag
notes: detergent-solubilized human CD39 expressed in Pichia pastoris, FLAG tagged
Km [4]: 58.5 µM | Km [5]: 45.8 µM
